Where two headings read alike, the source gives them in different places.
Columns and labels:
SK-MEL 31 cells [1] = conditions: 20 μM SFN, 24 hours, p<0.05
STAT3 = conditions: administered orally to SCID mice; FIG. 3
SK-MEL37 = conditions: different concentrations of SFN for 24, 48, or 72 h, FIG. 1
[2] = system: Cyclin B1, Cdk1, and Cdc25; conditions: SK-MEL31 cells, 20 μM SFN; FIG. 2
From the text: The blots were stripped and re-probed with anti-actin antibody to normalize for differences in protein loading.

caspase-8 = conditions: 20 μM SFN
From the text: (§1) RPMI 1640, penicillin/streptomycin antibiotic mixture, and fetal bovine serum were from Gibco (Grand Island, N.Y.), propidium iodide and 4′,6′-diamidino-2-phenylindole-dihydrochloride (DAPI) were from Sigma (St Louis, Mo.). LIPOFECTAMINE 2000™ and G418 were purchased from Invitrogen (Carlsbad, Calif.). RNaseA was purchased from Promega (Madison, Wis.), and the reagents for electrophoresis were from Bio-Rad (Hercules, Calif.). Antibodies for Bcl-XL, Bak and cytochrome c were purchased from Santa Cruz Biotechnology (Santa Cruz, Calif.), antibodies specific for Bax, Smac/DIABLO, cleaved caspase-3 and cleaved caspase-8, cleaved caspase-9, cIAP1 and poly (ADP-ribose) polymerase (PARP) were purchased from Cell Signaling Technology (Beverly, Mass.), anti Bcl-2 antibody was purchased from Dakocytomation (Denmark), anti XIAP (X-linked inhibitor of apoptosis) antibody was purchased from BD PharMingen (San Diego, Calif.). Anti actin antibody was purchased from Oncogene Research Products (Boston, Mass.). The caspase inhibitors z-VAD fmk (general caspase inhibitor), z-IETD fmk (caspase-8 specific inhibitor) and z-LEHD fmk (caspase-9 specific inhibitor) were purchased from MP Biochemicals (Aurora, Ohio). The caspase-8 and caspase-9 colorimetric assay kits were purchased from R&D systems (Minneapolis, Minn.). Cytoplasmic histone associated DNA fragments detection ELISA kit was purchased from Roche Diagnostics GmbH (Mannheim, Germany). ProteoExtract™ Subcellular Proteome Extraction kit was purchased from Calbiochem (San Diego, Calif.).
(§2) Caspases are aspartate-specific cysteine proteases that play critical roles in apoptosis. Activation of caspases results in cleavage and inactivation of key cellular proteins, including the DNA repair enzyme PARP.

caspase-9 = conditions: 20 μM SFN, 24 hours
From the text: as §1, §2

SK-MEL 31 cells [3] = experiment: Trypan blue dye exclusion assay (cell proliferation / viability); conditions: for number of viable cells compared with control: 24 hour
[4] = mice, at the doses used
Protocol: (§3) Female athymic mice (6-week-old) were purchased from Taconic (Germantown, N.Y.). SK-MEL 31 cells were suspended in pharmacological grade normal saline, and 0.1 ml suspension containing 5×10^6 cells was injected subcutaneously on right flank of each mouse. Mice were randomized into two groups of 10 mice per group. Experimental animals were gavaged with SFN (5.6 μmol SFN in 0.1 ml normal saline) three times per week (Monday, Wednesday and Friday) beginning two weeks before tumor implantation. Control mice received an equal volume of the vehicle. Tumor volume was determined based on measurement of the length and width of the tumor, […]. Statistical significance of difference in tumor volume was assessed by Student's t-test. Upon the termination of the experiment, the tumor tissues were harvested and processed for analysis of apoptotic bodies by immunohistochemistry method. Tumor tissues were embedded in paraffin, sectioned (6 μm), de-paraffinized and processed for determination of apoptotic bodies using APOTAG® Plus Peroxidase In Situ Apoptosis detection kit (Intergen, NY) according to the manufacturer's instructions. Brown color apoptotic bodies in tumor sections of control and SFN-treated group were counted by two pathologists independently and blindly under a microscope at 400× magnification. Four randomly selected fields on each tumor section were counted for apoptotic bodies.

SK-MEL 31 xenografts = system: SK-MEL 31 xenografts
Protocol: as §3

SK-MEL 31 cells [5] = conditions: 24 hours
Protocol: (§4) Apoptosis induction in SFN-treated SK-MEL 31 cells was assessed by (i) quantification of cytoplasmic histone associated DNA fragments, (ii) Western blot analysis for PARP cleavage and (iii) DAPI dye for nuclear morphology assay. For quantification of cytoplasmic histone-associated DNA fraction, SK-MEL 31 cells were seeded at 4×10^3 cells/well in 96-well plate and allowed to attach overnight. […] After 24 hours, the floating and attached cells were pelleted and lysed with lysis buffer supplied with the cell death detection ELISA kit, lysates were assayed for apoptosis according to the manual. SK-MEL 31 cells were seeded at 1×10^4 cells/well on a round glass coverslip in 12 well plates. Cells were then incubated for 24 hours with 0, 10, or 20 μM SFN, attached cells were fixed with 3% paraformaldehyde in PBS, permeabilized with 1% TRITON® X-100, stained with DAPI dye and inspected under a fluorescent microscope after stained with DAPI.

[6] = system: procaspase-9, procaspase-8 and procaspase-3; conditions: 20 μM SFN, 24 hour time point
Protocol: (§5) Cell lysate was cleared by centrifugation at 16000 rpm for 15 min. Lysate proteins were resolved by SDS-PAGE gel electrophoresis and transferred onto nitrocellulose membrane. The membrane was immersed into a phosphate buffered saline (PBS) solution containing 0.2% TWEEN® 20 and 5% (w/v) non-fat dry milk, and then incubated with desired primary antibody for 1 hour at room temperature. After incubation with appropriate secondary antibody, the immunoreactive bands were visualized using enhanced chemiluminescence method. The conjugated horseradish peroxidase (HRP) secondary antibody was deactivated with sodium azide, then membranes were re-probed with anti-actin antibody to standardize protein loading. For cytochrome c and Smac/DIABLO, the cytosolic fractions were prepared with the PROTEOEXTRACT™ Subcellular Proteome Extraction kit according to the manufacturer's instructions and Western blot analysis were performed as described above.

Bcl-2 = conditions: 20 μM SFN, all time points
Protocol: as §5

Bax and Bak = conditions: 20 μM SFN
Protocol: as §5

cIAP1 and XIAP = conditions: SFN treatment, with time increasing
Protocol: as §5

Smac and cytochrome c = conditions: SFN incubation; significant increases after 8 hours
Protocol: as §5

Bcl-XL = conditions: 20 μM SFN, evident from the 2 hour time point
Protocol: as §5

PARP = conditions: 20 μM SFN, from 16 to 24 hour after treatment
Protocol: as §4
Cell lysate was cleared by centrifugation at 16000 rpm for 15 min. Lysate proteins were resolved by SDS-PAGE gel electrophoresis and transferred onto nitrocellulose membrane. The membrane was immersed into a phosphate buffered saline (PBS) solution containing 0.2% TWEEN® 20 and 5% (w/v) non-fat dry milk, and then incubated with desired primary antibody for 1 hour at room temperature. […]

For `C[S+]([O-])CCCCN=C=S` (centres unmarked) [SFN, 1-isothiocyanato-4-(methylsulfinyl)-butane], the cell cycle distribution (SK-MEL 31 cells [1]) was “significantly increase of Sub-G0/G1 and G2M phase and decreased G0/G1 phase cell number”, the “STAT3 expression in human melanoma cells transplanted into mice” value (STAT3) was “lowered STAT3 expression” and the “melanoma cell growth in vitro (cell viability)” value (SK-MEL37) was “inhibits melanoma cell growth in vitro”. For the same compound, the “melanoma cell Cyclin B1, Cdk1, and Cdc25” value [2] was “inhibits”, the “caspase-8 activity increase compared with the control group” value (caspase-8; 16 hour) was 45% and the “caspase-8 activity increase compared with the control group” value (caspase-8; 24 hour) was 73%. For the same compound, the “increase in caspase-9 activity” value (caspase-9) was 148%, the “number of viable cells compared with control” value (“number … compared with control” for short) (SK-MEL 31 cells [3]; 10 μM SFN) was 58% and the “number of viable cells compared to control” value (shortened to “number … compared to control”) (SK-MEL 31 cells [3]; 10 μM SFN, 48 hour) was 27%. For the same compound, the “number … compared to control” value (SK-MEL 31 cells [3]; 10 μM SFN, 72 hour) was 19%, the “number … compared with control” value (SK-MEL 31 cells [3]; 20 μM SFN) was 46% and the “number … compared to control” value (SK-MEL 31 cells [3]; 20 μM SFN, 48 hour) was 23%. For the same compound, the “number … compared to control” value (SK-MEL 31 cells [3]; 20 μM SFN, 72 hour) was 13%, the “number … compared with control” value (SK-MEL 31 cells [3]; 40 μM SFN) was 26% and the “number … compared to control” value (SK-MEL 31 cells [3]; 40 μM SFN, 48 hour) was 10%. The “number … compared to control” value (SK-MEL 31 cells [3]; 40 μM SFN, 72 hour) was 10%, the “melanoma cell growth in vitro (cell viability)” value (SK-MEL 31 cells [3]; SK-MEL31, different concentrations of SFN for 24, 48, or 72 h, FIG. 1) was “inhibits melanoma cell growth in vitro” and the “side effect (weight loss, organ weight difference)” value [4] was “No side effect was observed”. The “reduction in tumor volume” value (SK-MEL 31 xenografts; 16 days after tumor implantation, versus control, p<0.01) was 50%, the average tumor volume (SK-MEL 31 xenografts; 16 days after tumor implantation, gavage 5.6 μmol SFN three times per week) was 154.4±95.4 mm^3 and the tumor wet weight (SK-MEL 31 xenografts; oral SFN versus control, p<0.01) was “significant decrease”. For the same compound, the “count of apoptotic bodies in tumor sections versus controls (TUNEL assay)” value (SK-MEL 31 xenografts; oral SFN, p<0.05) was roughly 4.4 fold, the “increase in cytoplasmic histone associated DNA fragments compared with DMSO treated control” value (SK-MEL 31 cells [5]; 5 μM SFN) was roughly 4.7 fold and the “increase in cytoplasmic histone associated DNA fragments compared with DMSO treated control” value (SK-MEL 31 cells [5]; 10 μM SFN) was roughly 11.4 fold. For the same compound, the condensed nucleus ratio (SK-MEL 31 cells [5]; SFN 10 or 20 μM, FIG. 5C) was “increased significantly”, the “cleavage of procaspase-9, procaspase-8 and procaspase-3” value [6] was “resulted in cleavage” and the Bcl-2 protein level (Bcl-2) was “No marked change”. The “Bax and Bak protein level” value (Bax and Bak) was “no significant level changes”, the “cIAP1 and XIAP level” value (cIAP1 and XIAP) was “consecutive cIAP1 and XIAP level decreases” and the “cytosolic levels of Smac and cytochrome c” value (Smac and cytochrome c) was “time-dependent increases”. For the same compound, the Bcl-XL protein level (Bcl-XL) was “down-regulation” and the PARP cleavage (PARP) was “obvious increase of PARP cleavage”.

Source: US9393225B2, “Melanoma chemoprevention” (University of Pittsburgh—Of the Commonwealth System of …, priority 2012, dated 2016)
